Tests used:
[1] = system: AMPK in human hepatocytes; assay: AMPK activation assay in human hepatocytes; assay type: cell-based; conditions: cells preferentially expressing β2 subunit
Experimental: All cell lines were lysed in 0.1 M Tris-HCl, pH 6.8, 2% SDS, 10 mM sodium fluoride (SIGMA #S7920), 10 mM β-glycerophosphate (SIGMA #G6376), and 1 mM sodium vanadate (SIGMA #72060) and supernatant collected after 1 minute at 14,000 rpm. Islets (human and mouse) were lysed in 0.1 M Tris-HCl, pH 6.8, 2% SDS, protease inhibitor (Roche #04 693 124 001) and phosphatase inhibitor (Roche #04 906 837 001). Right calf muscle, heart, iWAT, and interscapular BAT was crushed in a pestle using liquid nitrogen and homogenised in ice cold RIPA buffer (150 mM sodium chloride (SIGMA #S7653), 1.0% NP40 (USB), 0.5% sodium deoxycholate (SIGMA #D6750), 0.1% SDS, 50 mM Tris pH 8.0, 20 mM sodium pyrophosphate (SIGMA #71515), 10 mM sodium fluoride, 10 mM β-glycerolphosphate, 1 mM sodium vanadate and protease inhibitor cocktail (Roche #04693124001), 1 tablet/10 ml lysis buffer). The supernatant was collected after 2 min at 14,000 rpm. This procedure was repeated until all fat was eliminated and the supernatant was clear, at 4° C. Samples were analysed on 4-15% polyacrylamide gels. Values were normalised toward AMPKα, β-Actin, GAPDH or the respective non-phosphorylated counterpart.
Table 3 contains origin of cell lines, growth conditions and settings for activation of AMPK via the test material. […]

[2] = system: diet-induced obese C57BL/6J mice; assay: Combination therapy AMPK activator + SGLT2 inhibitor in DIO mice; assay type: in vivo; conditions: 2 weeks oral gavage, Compound 1 75 mg/kg, canagliflozin 10 mg/kg
Experimental: Male C57BL/6J mice, 8 weeks of age were purchased from Jackson, Charles River Laboratories, Inc. (Germany). All animals were housed in the Umeå University animal facility (Umeå Centre for Comparative Biology; UCCB) with a 12:12 hour light-dark cycle (lights on at 6 a.m.) and a constant temperature of 21° C. The animals were ear marked with a unique identification number, and groups of 5 mice were housed in transparent polycarbonate cages that comply with the requirements of the Code of Practice for the housing and care of animals used in scientific procedures. Wood chips were used as bedding material and environmental enrichment was provided. Animals were allowed to acclimate for 15 weeks to their new environment before the onset of the study. The animals were allowed ad libitum access to tap water throughout the accommodation and study period. During the acclimation period, the animals were allowed a standard pelleted diet (CRM (E) Rodent, Special Diets Services, Scanbur BK, Sweden). At the start of the study, the standard diet was changed to a very high fat diet (vHFD; Cat. No. D12492, Research Diets, Inc.) and this diet was kept throughout the whole study period. All of the procedures were approved by the Local Ethics Review Committee on Animal Experiments, Umeå Region.
23 Weeks old male C57BL/6J mice were fed HFD to promote diet-induced obesity (DIO) and administered once daily by oral gavage; vehicle (phosphate buffer pH 7.3, 2% w/v methyl cellulose; n=11), canagliflozin 10 mg/kg (n=14), Compound 1 at 75 mg/kg (n=14) and the combination of canagliflozin 10 mg/kg and Compound 1 at […] (n=15). After 2 weeks of treatment, fasted (6 hour) blood glucose and plasma insulin levels (determined in tail vein blood samples) were analysed. Food intake and weight were monitored throughout the study.
Blood samples were collected from the tail vein in Potassium-EDTA vials and plasma was separated by centrifugation and stored at −20° C. until assayed. Plasma insulin was determined with mouse insulin ELISA (Ultra Sensitive Mouse insulin ELISA Kit). Glucose concentrations were analysed in tail vein blood using a OneTouch® Ultra®2 Blood Glucose Meter (LifeScan, Inc).
Results shown in the figures are expressed as means±standard error of the mean (S.E.M.) for the number of animals per group. Statistical significance between the control group and the three treatment groups were analysed by Student's t-test, with P<0.05 considered statistically significant.

Wistar rats = assay: 6 months oral gavage in Wistar rats; assay type: in vivo; conditions: 100, 300 and 600 mg/kg/day gavage, RD, vs vehicle
Experimental: 8-10 weeks old Wistar male and female rats were treated by oral gavage with vehicle or test material at 100, 300 or 600 mg/kg/day for 6 months.

O=C(Nc1nc(=O)n(Cc2ccc(Cl)cc2)s1)c1ccc(Cl)cc1 [test material, 4-chloro-N-[2-[(4-chlorophenyl)methyl]-3-oxo-1,2,4-thiadiazol-5-yl]benzamide]
pAMPK [1]: increased pAMPK
HOMA-IR [2]: statistically significant (***) reduction
fasted plasma insulin ([2]; 6 hour fast): statistically significant (***) reduction
heart/brain weight (Wistar rats): did not show increased heart/brain weight

From patent US20220023269A1, “Methods Of Treating Diabetes In Severe Insulin-Resistant Diabetic Subjects” (Balticgruppen Bio AB, priority 2018, published 2022)
